Laboratory results reported in ChEMBL document CHEMBL3112526, “20S proteasome as novel biological target for organochalcogenanes” (Eur J Med Chem, 2014).
Activity calls are given as the source filed them. The rule behind the calls is not given here.

What was measured:
[1] = species on record: Equus caballus; experiment: Inhibition of horse erythrocytes trypsin like activity of beta2-20S proteasome using z-ARR-AMC as substrate at 100 uM measured for 60 mins by fluorescence assay
[2] = Inhibition of horse erythrocytes trypsin like activity of beta2-20S proteasome using z-ARR-AMC as substrate measured for 60 mins by fluorescence assay; parameters: species or system Equus caballus
[3] = species on record: Equus caballus; experiment: Inhibition of horse erythrocytes chymotrypsin like activity of beta5-20S proteasome using suc-LLVY-AMC as substrate at 100 uM measured for 60 mins by fluorescence assay
[4] = system: Saccharomyces cerevisiae; experiment: Inhibition of yeast 20S proteasome
[5] = species on record: Equus caballus; experiment: Inhibition of horse erythrocytes caspase like activity of beta1-20S proteasome using z-LLE-AMC as substrate at 100 uM measured for 60 mins by fluorescence assay
[6] = Cytotoxicity against mouse NIH/3T3 cells assessed as cell viability at 10 umol/L after 2 hrs by MTT assay; type: cell-based, NIH3T3; conditions: read-out: Activity
[7] = system: NIH3T3; experiment: Cytotoxicity against mouse NIH/3T3 cells assessed as cell viability after 2 hrs by MTT assay; type: cell-based; conditions: nih3t3, 2 h
[8] = system: NIH3T3; experiment: (§1) Cytotoxicity against mouse NIH/3T3 cells assessed as cell viability at 80 umol/L after 2 hrs by MTT assay; type: cell-based; conditions: nih3t3, 2 h, 80 µM
[9] = target: Proteasome subunit beta type-2 (Mus musculus) (UniProt Q9R1P3); experiment: Inhibition of trypsin like activity of beta2-20S proteasome in mouse NIH-3T3 cells at 2 times IC50; type: cell-based; conditions: NIH3T3
[10] = Chemical stability of the compound under aqueous condition assessed as drug transformation; type: physicochemical; conditions: buffer
[11] = Cytotoxicity against mouse NIH/3T3 cells assessed as cell viability at 40 umol/L after 2 hrs by MTT assay; type: cell-based, NIH3T3; conditions: read-out: Activity
[12] = Cytotoxicity against mouse NIH/3T3 cells assessed as cell viability at 0.5 to 10 umol/L after 2 hrs by MTT assay; type: cell-based, NIH3T3; conditions: read-out: Activity
[13] = system: NIH3T3; experiment: Cytotoxicity against mouse NIH/3T3 cells assessed as cell viability at 10 to 100 umol/L after 2 hrs by MTT assay; type: cell-based; conditions: nih3t3, 2 h
[14] = Chemical stability of the compound under aqueous condition; type: physicochemical; conditions: buffer
[15] = as §1; type: cell-based, NIH3T3; conditions: NIH/3T3 cells, read-out: Activity
[16] = Cytotoxicity against mouse NIH/3T3 cells assessed as cell viability at 1 to 40 umol/L after 2 hrs by MTT assay; type: cell-based, NIH3T3; conditions: read-out: Activity
[17] = Cytotoxicity against mouse NIH/3T3 cells assessed as cell viability at 20 umol/L after 2 hrs by MTT assay; type: cell-based, NIH3T3; conditions: read-out: Activity

Chain of Proteasome subunit beta type-2 (Mus musculus) (Q9R1P3 whole entry): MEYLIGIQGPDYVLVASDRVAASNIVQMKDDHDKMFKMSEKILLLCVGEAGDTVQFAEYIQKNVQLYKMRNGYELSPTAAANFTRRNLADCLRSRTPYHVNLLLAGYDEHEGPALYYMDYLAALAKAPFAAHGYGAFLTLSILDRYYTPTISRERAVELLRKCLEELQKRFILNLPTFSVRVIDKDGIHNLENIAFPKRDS

| SMILES | inhibition [1] | IC50 [2] [µM] | inhibition [3] | inhibition [4] | inhibition [5] | other results |
| --- | --- | --- | --- | --- | --- | --- |
| CCCC[Te]c1ccccc1COC | inactive | – | – | – | – | – |
| CCCC[Te]c1ccccc1[C@H](C)OC | inactive | – | – | – | – | – |
| CCCC[Se]c1ccccc1[C@@H](C)OC | inactive | – | – | – | – | – |
| CCCC[Se]1(Cl)c2ccccc2[C@@H](C)[O+]1C (stereo partly drawn) | > 50% | 34 | inactive | inactive | inactive | – |
| CCCC[Se]1(Cl)c2ccccc2C[O+]1C.[Cl-] (stereo not drawn) | 90% | 35 | inactive | inactive | inactive | viability at 2 h, 10 µM [6]: 50%; Activity [7]: Dose-dependent effect; Activity [8]: Non-toxic; inhibition [9]: Active; Stability [10]: Unstable; viability at 2 h, 40 µM [11]: 40% |
| CCCC[Te](Cl)(Cl)c1ccccc1COC | 90% | 3.5 | inactive | inactive | inactive | viability at 2 h [12]: 60%; Activity [13]: Non-toxic; Stability [14]: Stable; inhibition [9]: inactive |
| CCCC[Te](Br)(Br)c1ccccc1[C@H](C)OC | > 50% | 15 | inactive | inactive | inactive | – |
| CCCC[Te](Br)(Br)c1ccccc1COC | 90% | 4 | inactive | inactive | inactive | Stability [14]: Stable; viability at 2 h, 80 µM [15]: > 50%; viability at 2 h [16]: 60%; inhibition [9]: inactive |
| CCCC[Se]c1ccccc1COC | inactive | – | – | – | – | – |
| CCCC[Te]c1ccccc1[C@@H](C)OC | inactive | – | – | – | – | – |
| CCCC[Se]1(Br)c2ccccc2[C@@H](C)[O+]1C (stereo partly drawn) | > 50% | 26 | inactive | inactive | inactive | – |
| CCCC[Se]1(Br)c2ccccc2[C@H](C)[O+]1C (stereo partly drawn) | > 50% | 19 | inactive | inactive | inactive | – |
| CCCC[Se]1(Br)c2ccccc2C[O+]1C.[Br-] (stereo not drawn) | 90% | 16 | inactive | inactive | inactive | viability at 2 h, 20 µM [17]: 75%; inhibition [9]: Active; Stability [10]: Unstable |
| CCCC[Se]1(Cl)c2ccccc2[C@H](C)[O+]1C (stereo partly drawn) | > 50% | 32 | inactive | inactive | inactive | – |
| CCCC[Te](Br)(Br)c1ccccc1[C@@H](C)OC | 90% | 8 | inactive | inactive | inactive | – |
| CCCC[Se]c1ccccc1[C@H](C)OC | inactive | – | – | – | – | – |
| CCCC[Te](Cl)(Cl)c1ccccc1[C@@H](C)OC | > 50% | 4 | inactive | inactive | inactive | – |
| CCCC[Te](Cl)(Cl)c1ccccc1[C@H](C)OC | > 50% | 5.5 | inactive | inactive | inactive | – |
